{"source": "paper PMC6905855", "about": "“Agonist-specific voltage-dependent gating of lysosomal two-pore Na^+ channels” (eLife, 2019)", "key": {"[1]": {"molecular_target": "T1, surface-expressing mutant TPC2 channel (TPC2^LL/AA) in HEK293 cells (Homo sapiens, UniProt Q8NHX9, L11A/L12A)", "T1 construct": "expressed in transfected cells; host or cells: HEK293", "T1 sequence (Q8NHX9 whole entry L11A/L12A, the tested form may be a part)": "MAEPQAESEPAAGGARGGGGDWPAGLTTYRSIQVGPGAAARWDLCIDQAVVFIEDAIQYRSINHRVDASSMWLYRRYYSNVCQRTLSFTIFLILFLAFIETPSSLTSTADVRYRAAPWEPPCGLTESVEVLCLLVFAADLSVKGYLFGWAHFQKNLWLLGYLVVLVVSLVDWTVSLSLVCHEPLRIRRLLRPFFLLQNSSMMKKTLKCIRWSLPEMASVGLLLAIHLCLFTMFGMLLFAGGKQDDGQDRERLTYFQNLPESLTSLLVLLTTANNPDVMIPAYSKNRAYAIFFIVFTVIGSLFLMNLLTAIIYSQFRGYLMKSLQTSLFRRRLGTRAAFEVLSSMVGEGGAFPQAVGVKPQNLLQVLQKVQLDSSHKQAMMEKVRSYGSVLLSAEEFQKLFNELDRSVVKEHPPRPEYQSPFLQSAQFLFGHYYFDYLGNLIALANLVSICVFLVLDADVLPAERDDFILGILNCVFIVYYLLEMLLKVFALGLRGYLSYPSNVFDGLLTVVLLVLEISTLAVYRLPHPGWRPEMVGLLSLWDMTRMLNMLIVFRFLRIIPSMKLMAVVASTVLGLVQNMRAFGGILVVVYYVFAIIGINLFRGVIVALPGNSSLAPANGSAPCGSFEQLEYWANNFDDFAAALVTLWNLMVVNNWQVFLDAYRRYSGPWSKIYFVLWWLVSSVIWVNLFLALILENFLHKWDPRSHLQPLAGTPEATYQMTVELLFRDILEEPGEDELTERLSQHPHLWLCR", "experiment": "Whole-cell recordings of ITPC2-LL/AA", "assay_type": "cell-based", "how_it_was_run": "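HEK293 cells transiently expressing EGFP-tagged human TPC2 L11A/L12A, a plasma-membrane-targeted mutant, recorded 24–36 h post-transfection. Whole-cell patch clamp with fast perfusion of bath solutions; currents digitized at 10 kHz and filtered at 2 kHz.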"}, "[2]": {"molecular_target": "T2, hTPC2 (Homo sapiens, UniProt Q8NHX9)", "T2 construct": "expressed in transfected cells; host or cells: Cos1 and HEK293", "T2 sequence (Q8NHX9 whole entry)": "as the sequence (Q8NHX9 whole entry L11A/L12A, the tested form may be a part) above, with A11L, A12L counted along it", "experiment": "Whole-endolysosome recordings of ITPC2", "assay_type": "biochemical", "details": "for Normalized I-TPC2: WT TPC2"}, "[3]": {"molecular_target": "T3, hTPC1 (Homo sapiens, UniProt Q9ULQ1)", "T3 construct": "expressed in transfected cells; host or cells: Cos1", "experiment": "Whole-endolysosome recordings of ITPC1", "assay_type": "biochemical"}}, "note": "Where “and” joins values, the source holds several entries; their conditions need not be identical. Identical values can stand only once.", "data": [{"smiles": "CN(C)CCCN1c2ccccc2CCc2ccc(Cl)cc21", "note": "[LyNa-VA1.1, Clomipramine]", "values": [{"measurement": "activation of whole-cell ITPC2-LL/AA (in words)", "setting": "[1]", "result": "activated"}, {"measurement": "current, whole-cell ITPC2-LL/AA", "setting": "[1]", "result": "1835.6 pA and 1904.2 pA and 1632.7 pA and 1290 pA and 1968.1 pA"}, {"measurement": "EC50", "setting": "[1]; whole-cell recordings at −140 mV, TPC2^LL/AA-transfected HEK293 cells, read-out: EC50", "result": "43 ± 2", "unit": "µM"}, {"measurement": "combined effect with PI(3,5)P2 on whole-endolysosome ITPC2 (in words)", "setting": "[2]; PI(3,5)P2 50 nM", "result": "synergistic effects"}, {"measurement": "EC50", "setting": "[2]; WT +PI(3,5)P2 (50 nM), whole-endolysosome, Figure 3C", "result": "12 ± 7", "unit": "µM"}, {"measurement": "EC50", "setting": "[2]; WT -PI(3,5)P2, whole-endolysosome, Figure 3C", "result": "48 ± 16", "unit": "µM"}, {"measurement": "Normalized I-TPC2", "setting": "[2]; 1 µM + PI(3,5)P2 50nM, individual patches", "result": "0.3375 and 0.1568 and 0.08956"}, {"measurement": "Normalized I-TPC2", "setting": "[2]; 1 µM + PI(3,5)P2 50nM, mean", "result": 0.1946}, {"measurement": "Normalized I-TPC2", "setting": "[2]; 3 µM + PI(3,5)P2 50nM, individual patches", "result": "0.35 and 0.3063 and 0.1"}, {"measurement": "Normalized I-TPC2", "setting": "[2]; 3 µM + PI(3,5)P2 50nM, mean", "result": 0.2521}, {"measurement": "Normalized I-TPC2", "setting": "[2]; 10 µM + PI(3,5)P2 50nM, individual patches", "result": "0.5558 and 0.7252 and 0.2889"}, {"measurement": "Normalized I-TPC2", "setting": "[2]; 10 µM + PI(3,5)P2 50nM, mean", "result": 0.5233}, {"measurement": "Normalized I-TPC2", "setting": "[2]; 10 µM, no PI(3,5)P2, individual patches", "result": "0.08625 and 0.1427 and 0.1845"}, {"measurement": "Normalized I-TPC2", "setting": "[2]; 10 µM, no PI(3,5)P2, mean", "result": 0.1378}, {"measurement": "Normalized I-TPC2", "setting": "[2]; 20 µM, no PI(3,5)P2, individual patches", "result": "0.2419 and 0.1804 and 0.1168"}, {"measurement": "Normalized I-TPC2", "setting": "[2]; 20 µM, no PI(3,5)P2, mean", "result": 0.1797}, {"measurement": "Normalized I-TPC2", "setting": "[2]; 30 µM + PI(3,5)P2 50nM, individual patches", "result": "1 (2×) and 0.3222"}, {"measurement": "Normalized I-TPC2", "setting": "[2]; 30 µM + PI(3,5)P2 50nM, mean", "result": 0.7741}, {"measurement": "Normalized I-TPC2", "setting": "[2]; 50 µM, no PI(3,5)P2, individual patches", "result": "0.8473 and 0.4535 and 0.5893"}, {"measurement": "Normalized I-TPC2", "setting": "[2]; 50 µM, no PI(3,5)P2, mean", "result": 0.63}, {"measurement": "Normalized I-TPC2", "setting": "[2]; 100 µM + PI(3,5)P2 50nM, individual patches", "result": "0.7417 and 0.7423 and 1"}, {"measurement": "Normalized I-TPC2", "setting": "[2]; 100 µM + PI(3,5)P2 50nM, mean", "result": 0.828}, {"measurement": "Normalized I-TPC2", "setting": "[2]; 100 µM, no PI(3,5)P2, individual patches", "result": "1 (2×) and 0.99"}, {"measurement": "Normalized I-TPC2", "setting": "[2]; 100 µM, no PI(3,5)P2, mean", "result": 0.9967}, {"measurement": "Normalized I-TPC2", "setting": "[2]; 200 µM, no PI(3,5)P2, individual patches", "result": "0.7106 and 0.507 and 0.6545"}, {"measurement": "Normalized I-TPC2", "setting": "[2]; 200 µM, no PI(3,5)P2, mean", "result": 0.624}, {"measurement": "EC50", "setting": "[2]; WT+pip2 (50 nM), MEAN (Fig. 3D)", "result": 14.6, "unit": "µM"}, {"measurement": "EC50", "setting": "[2]; WT+pip2 (50 nM), individual patches (Fig. 3D)", "result": "27 µM and 12.6 µM and 4.3 µM"}, {"measurement": "EC50", "setting": "[2]; WT-pip2, MEAN (Fig. 3D)", "result": 45.1, "unit": "µM"}, {"measurement": "EC50", "setting": "[2]; WT-pip2, individual patches (Fig. 3D)", "result": "56 µM and 48.4 µM and 30.8 µM"}, {"measurement": "ITPC2", "setting": "[2]; whole endolysosome recordings with 100 µM of LyNa-VAs at −120 mV", "result": "945 ± 111", "unit": "pA"}, {"measurement": "effect on whole-endolysosome ITPC1 (in words)", "setting": "[3]", "result": "profound suppression of outward currents at potentials positive to Erev (~0 mV), and a substantial enhancement of inward currents negative to Erev"}, {"measurement": "Dose-dependent activation of TPC1 (normalized ITPC1)", "setting": "[3]; 3 µM, individual patches", "result": "0.0359 and 0.105 and 0"}, {"measurement": "Dose-dependent activation of TPC1 (normalized ITPC1)", "setting": "[3]; 3 µM, mean", "result": 0.04696}, {"measurement": "Dose-dependent activation of TPC1 (normalized ITPC1)", "setting": "[3]; 10 µM, individual patches", "result": "0.1722 and 0.1955 and 0.1208"}, {"measurement": "Dose-dependent activation of TPC1 (normalized ITPC1)", "setting": "[3]; 10 µM, mean", "result": 0.1629}, {"measurement": "Dose-dependent activation of TPC1 (normalized ITPC1)", "setting": "[3]; 30 µM, individual patches", "result": "0.6041 and 0.3178 and 0.3982"}, {"measurement": "Dose-dependent activation of TPC1 (normalized ITPC1)", "setting": "[3]; 30 µM, mean", "result": 0.44}, {"measurement": "Dose-dependent activation of TPC1 (normalized ITPC1)", "setting": "[3]; 100 µM, individual patches", "result": "1 and 0.7031 and 0.8638"}, {"measurement": "Dose-dependent activation of TPC1 (normalized ITPC1)", "setting": "[3]; 100 µM, mean", "result": 0.8556}, {"measurement": "Dose-dependent activation of TPC1 (normalized ITPC1)", "setting": "[3]; 300 µM, individual patches", "result": "0.8072 and 1 (2×)"}, {"measurement": "Dose-dependent activation of TPC1 (normalized ITPC1)", "setting": "[3]; 300 µM, mean", "result": 0.9357}, {"measurement": "τ of ITPC1 step currents", "setting": "[3]; hTPC1, LyNa-VA1.1 (100 µM), Figure 4A", "result": "155 ± 1", "unit": "ms"}, {"measurement": "V1/2 of ITPC1 G-V curve", "setting": "[3]; hTPC1, LyNa-VA1.1 (100 µM), Figure 4F", "result": "-30 ± 5", "unit": "mV"}, {"measurement": "τ of ITPC1 tail currents", "setting": "[3]; hTPC1, tail currents at −120 mV, LyNa-VA1.1 (100 µM), Figure 4E", "result": "203 ± 2", "unit": "ms"}, {"measurement": "EC50", "setting": "[3]; whole-endolysosome, n = 3 patches, read-out: EC50, activation of TPC1", "result": "27 ± 2", "unit": "µM"}]}]}
